# Test results from patent publication US20040116336A1, “Peptide derivatives” (priority 2002, published 2004).
# pEC50, pIC50: −log10 of the molar value. Non-standard residues stand in square brackets, D forms with d. Residues, ends and D or L forms follow the SMILES beside them. No end group written: not given here. Phe(4-Cl) = N[C@@H](Cc1ccc(Cl)cc1)C(=O)O; 2Nal = N[C@@H](Cc1ccc2ccccc2c1)C(=O)O; Lys(Me2) = CN(C)CCCC[C@H](N)C(=O)O; Cha = N[C@@H](CC1CCCCC1)C(=O)O; pGlu = O=C1CC[C@@H](C(=O)O)N1
# Columns and labels:
# APJ [1] = biological target: T1, APJ (Homo sapiens, UniProt P35414); experiment: Inhibitory activity on forskolin-stimulated cAMP production in CHO-A10 clone 6 cells; assay type: cell-based; details: read-out: EC50
# T1 construct: expressed in transfected cells; host or cells: CHO (CHO-A10; clone 6 for the cAMP assay)
# T1 sequence (P35414 1-380): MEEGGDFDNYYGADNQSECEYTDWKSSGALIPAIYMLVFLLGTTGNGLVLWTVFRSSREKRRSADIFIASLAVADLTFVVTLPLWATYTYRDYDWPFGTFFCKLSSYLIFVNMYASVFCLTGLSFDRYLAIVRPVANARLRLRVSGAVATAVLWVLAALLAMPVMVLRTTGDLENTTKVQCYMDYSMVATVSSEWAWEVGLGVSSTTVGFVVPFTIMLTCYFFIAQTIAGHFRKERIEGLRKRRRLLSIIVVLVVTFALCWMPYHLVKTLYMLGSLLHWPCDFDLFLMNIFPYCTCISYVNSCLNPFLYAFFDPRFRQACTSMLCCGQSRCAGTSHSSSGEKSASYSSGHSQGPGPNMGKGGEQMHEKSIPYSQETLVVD
# Method: Measurement of an Inhibitory Activity on Forskolin-Stimulated cAMP Production
# Hanks' balanced salt solution (HBSS) containing 0.2 mM 3-isobutyl-1-methylxanthine (IBMX) and 0.05% bovine serum albumin was prepared as an assay buffer, and each well was washed twice with 500 μl assay buffer and pre-incubated at 37° C. for 30 minutes. Further, each well was washed once with 500 μl assay buffer, and a sample dissolved in the assay buffer containing 1 μM forskolin was added at a volume of 500 μl/well and incubated at 37° C. for 30 minutes. Wells incubated with the assay buffer not containing forskolin were prepared in the same manner in order to determine the basal level of cellular cAMP production, while wells incubated with the assay buffer containing forskolin were also prepared in order to determine the maximum level of cAMP production stimulated with forskolin. After incubation was finished, each well was washed once with 500 μl assay buffer, and 500 μl lysis buffer 1B attached to a cAMP EIA system from Amersham was added to each well, to extract cAMP. According to the protocol of the kit, 100 μl of each extract was used to determine the level of cAMP. For the inhibitory activity of the sample on cAMP production, the difference (inhibited cAMP production) between the maximum level and the level of cAMP in the sample-containing wells was determined, and the inhibitory activity was expressed as percentage relative to the increased level of cAMP production stimulated with forskolin (that is, the difference between the maximum level and basal level), and from this dose-reaction curve, the EC50 was determined.
# APJ [2] = biological target: T1, APJ; experiment: Receptor binding assay-2 (compound in Reference Example 2 used); details: compound in Reference Example 2 used as ligand; read-out: IC50
# Method: This product was mixed with an equal volume of an assay buffer (50 mM Tris-HCl/pH 7.5, 5 mM EDTA, 0.5 mM PMSF, 20 μg/ml leupeptin, 0.1 μg/ml pepstatin A, 4 μg/ml E-64 (Peptide Research Laboratory, Co.), 0.1% bovine serum albumin) and stored at −30° C. before use.
# CHO-A10 cells were cultured, recovered with PBS containing 5 mM EDTA from a culture vessel, and suspended in the above-mentioned assay buffer not containing bovine serum albumin. The cells were homogenized 3 times at 12,000 rpm for 15 seconds by a Polytron homogenizer (manufactured by Kinematica Inc.) and then centrifuged (1000×g, 4° C., 10 minutes), and the supernatant was recovered. The precipitates were subjected again to the same procedure as above, and the respective supernatants were combined and centrifuged at 100,000×g, 4° C. for 1 hour, to recover precipitates (membrane fraction). The membrane fraction was suspended again in a small amount of the buffer, homogenized with a Teflon homogenizer and stored at −80° C. before use.
# Binding assay was carried out under the following conditions. […] Measurement of non-specific binding was carried out using a well containing 1 μM unlabeled compound in place of the test sample. After the incubation was finished, a cell harvester (Packard) adapted to 96 wells and a filter unit (GF/C, Packard) were used for separation thereby capturing the membrane fraction on the filter. After the filter was sufficiently dried, Microcinti 0 (Packard) was added thereto, and using Top Count (Packard), the amount of the labeled material captured together with the membrane fraction on the filter was measured.
Compound,pEC50 (APJ [1]),pIC50 (APJ [2])
CSCC[C@H](NC(=O)[C@@H]1CCCN1C(=O)CNC(=O)[C@H](CCCNC(=N)N)NC(=O)[C@H](C)NC(=O)[C@H](CO)NC(=O)[C@H](CC(C)C)NC(=O)[C@H](CCCNC(=N)N)NC(=O)[C@@H]1CCCN1C(=O)[C@H](CCCNC(=N)N)NC(=O)[C@H](CCC(N)=O)NC(=O)[C@H](CCCNC(=N)N)NC(=O)[C@@H](N)CCCNC(=N)N)C(=O)N1CCC[C@H]1C(=O)N[C@@H](Cc1ccccc1)C(=O)O [Compound in Ex. 17],9.41,10.44
CC(C)C[C@H](NC(=O)[C@H](CCCNC(=N)N)NC(=O)[C@@H]1CCCN1C(=O)[C@H](CCCNC(=N)N)NC(=O)[C@H](CCC(N)=O)NC(=O)[C@H](CCCNC(=N)N)NC(=O)[C@@H](N)CCCNC(=N)N)C(=O)N[C@@H](CO)C(=O)N[C@@H](C)C(=O)N[C@@H](CCCNC(=N)N)C(=O)NCC(=O)N1CCC[C@H]1C(=O)O [Compound in Ex. 19],9.59,10.15
CC(C)C[C@H](NC(=O)[C@H](CCCNC(=N)N)NC(=O)[C@@H]1CCCN1C(=O)[C@H](CCCNC(=N)N)NC(=O)[C@H](CCC(N)=O)NC(=O)[C@H](CCCNC(=N)N)NC(=O)[C@@H](N)CCCNC(=N)N)C(=O)N[C@@H](CO)C(=O)N[C@@H](Cc1c[nH]cn1)C(=O)N[C@@H](CCCCN)C(=O)NCC(=O)N1CCC[C@H]1C(=O)N[C@@H](CC[S+](C)[O-])C(=O)O (stereo partly drawn) [Compound in Ex. 20],9.32,9.21
CSCC[C@H](NC(=O)[C@@H]1CCCN1C(=O)CNC(=O)[C@H](CCCCN)NC(=O)[C@H](Cc1c[nH]cn1)NC(=O)[C@H](CO)NC(=O)[C@H](CC(C)C)NC(=O)[C@H](CCCNC(=N)N)NC(=O)[C@@H]1CCCN1C(=O)[C@H](CCCNC(=N)N)NC(=O)[C@H](CCCNC(=N)N)NC(=O)[C@H](CCCNC(=N)N)NC(=O)[C@@H](N)CCCNC(=N)N)C(=O)N1CCC[C@H]1C(=O)N[C@@H](Cc1ccccc1)C(=O)O [Compound in Ex. 22],9.49,9.92
CSCC[C@H](NC(=O)[C@@H]1CCCN1C(=O)CNC(=O)[C@H](CCCCN)NC(=O)[C@H](Cc1c[nH]cn1)NC(=O)[C@H](CO)NC(=O)[C@H](CC(C)C)NC(=O)[C@H](CCCNC(=N)N)NC(=O)[C@@H]1CCCN1C(=O)[C@@H](N)CCCNC(=N)N)C(=O)N[C@@H](Cc1ccc(Cl)cc1)C(=O)O [Compound in Ex. 28] (H-RPRLSHKGPM[Phe(4-Cl)]-OH; N-terminus and C-terminus assumed),9.80,9.77
CSCC[C@H](NC(=O)[C@@H]1CCCN1C(=O)CNC(=O)[C@H](CCCCN)NC(=O)[C@H](C)NC(=O)[C@H](CO)NC(=O)[C@H](CC(C)C)NC(=O)[C@H](CCCNC(=N)N)NC(=O)[C@@H]1CCCN1C(=O)[C@H](CCCNC(=N)N)NC(=O)[C@@H]1CCC(=O)N1)C(=O)N1CCC[C@H]1C(=O)N[C@@H](Cc1ccccc1)C(=O)O [Compound in Ex. 29],9.66,9.68
CSCC[C@H](NC(=O)[C@@H]1CCCN1C(=O)CNC(=O)[C@H](CCCCN)NC(=O)[C@H](Cc1c[nH]cn1)NC(=O)[C@H](CO)NC(=O)[C@H](CC(C)C)NC(=O)[C@H](CCCNC(=N)N)NC(=O)[C@@H]1CCCN1C(=O)[C@@H](N)CCCNC(=N)N)C(=O)N1CCC[C@H]1C(=O)N[C@@H](Cc1ccc2ccccc2c1)C(=O)O [Compound in Ex. 32],10.00,9.46
CSCC[C@H](NC(=O)[C@@H]1CCCN1C(=O)CNC(=O)[C@H](CCCCN)NC(=O)[C@H](Cc1c[nH]cn1)NC(=O)[C@H](CO)NC(=O)[C@H](CC(C)C)NC(=O)[C@H](CCCNC(=N)N)NC(=O)[C@@H]1CCCN1C(=O)[C@H](CCCNC(=N)N)NC(=O)[C@H](Cc1ccccc1)NC(=O)[C@H](CCCNC(=N)N)NC(=O)[C@@H](N)CCCNC(=N)N)C(=O)N1CCC[C@H]1C(=O)N[C@@H](Cc1ccccc1)C(=O)O [Compound in Ex. 33],8.96,9.43
CSCC[C@H](NC(=O)[C@@H]1CCCN1C(=O)CNC(=O)[C@H](CCCCN)NC(=O)[C@H](Cc1c[nH]cn1)NC(=O)[C@H](CO)NC(=O)[C@H](CC(C)C)NC(=O)[C@H](CCCNC(=N)N)NC(=O)[C@@H]1CCCN1C(=O)[C@@H](N)CCCNC(=N)N)C(=O)N[C@@H](CC1CCCCC1)C(=O)O [Compound in Ex. 36] (H-RPRLSHKGPM[Cha]-OH; N-terminus and C-terminus assumed),9.66,9.29
CC(C)C[C@H](NC(=O)[C@H](CCCNC(=N)N)NC(=O)[C@@H]1CCCN1C(=O)[C@@H](N)CCCNC(=N)N)C(=O)N[C@@H](Cc1ccccc1)C(=O)N[C@@H](Cc1c[nH]cn1)C(=O)N[C@@H](CCCCN)C(=O)NCC(=O)N1CCC[C@H]1C(=O)N[C@@H](CC1CCCCC1)C(=O)N[C@@H](Cc1ccc(Cl)cc1)C(=O)O [Compound in Ex. 37] (H-RPRLFHKGP[Cha][Phe(4-Cl)]-OH; N-terminus and C-terminus assumed),9.37,9.27
CSCC[C@H](NC(=O)[C@@H]1CCCN1C(=O)CNC(=O)[C@H](CCCCN)NC(=O)[C@H](CC(C)C)NC(=O)[C@H](CO)NC(=O)[C@H](CC(C)C)NC(=O)[C@H](CCCNC(=N)N)NC(=O)[C@@H]1CCCN1C(=O)[C@H](CCCNC(=N)N)NC(=O)[C@@H]1CCC(=O)N1)C(=O)N1CCC[C@H]1C(=O)N[C@@H](Cc1ccccc1)C(=O)O [Compound in Ex. 38],9.80,9.23
CSCC[C@H](NC(=O)[C@@H]1CCCN1C(=O)CNC(=O)[C@H](CCCCN)NC(=O)[C@H](Cc1c[nH]cn1)NC(=O)[C@H](CO)NC(=O)[C@H](CC(C)C)NC(=O)[C@H](CCCNC(=N)N)NC(=O)[C@@H]1CCCN1C(=O)[C@@H](N)CCCNC(=N)N)C(=O)N[C@@H](Cc1ccc2ccccc2c1)C(=O)O [Compound in Ex. 40] (H-RPRLSHKGPM[2Nal]-OH),9.43,9.21
CSCC[C@H](NC(=O)[C@@H]1CCCN1C(=O)CNC(=O)[C@H](CCCNC(=N)N)NC(=O)[C@H](CCCNC(=N)N)NC(=O)[C@H](Cc1ccccc1)NC(=O)[C@H](CC(C)C)NC(=O)[C@H](CCCNC(=N)N)NC(=O)[C@@H]1CCCN1C(=O)[C@H](CCCNC(=N)N)NC(=O)[C@@H]1CCC(=O)N1)C(=O)N1CCC[C@H]1C(=O)N[C@@H](Cc1ccccc1)C(=O)O [Compound in Ex. 42] ([pGlu]RPRLFRRGPMPF-OH),9.82,9.09
CSCC[C@H](NC(=O)[C@@H]1CCCN1C(=O)CNC(=O)[C@H](CCCCN)NC(=O)[C@H](Cc1c[nH]cn1)NC(=O)[C@H](CO)NC(=O)[C@H](CC(C)C)NC(=O)[C@H](CCCNC(=N)N)NC(=O)[C@@H]1CCCN1C(=O)[C@@H](N)CCCNC(=N)N)C(=O)N1CCC[C@H]1C(=O)N[C@@H](CC1CCCCC1)C(=O)O [Compound in Ex. 49],9.15,8.46
"CSCC[C@H](NC(=O)[C@@H]1CCCN1C(=O)CNC(=O)[C@H](CCCCN(C)C)NC(=O)[C@H](C)NC(=O)[C@H](CO)NC(=O)[C@H](CC(C)C)NC(=O)[C@H](CCCNC(=N)N)NC(=O)[C@@H]1CCCN1C(=O)[C@@H](N)CCCNC(=N)N)C(=O)N1CCC[C@H]1C(=O)N[C@@H](Cc1ccccc1)C(=O)O [Compound in Ex. 64, Arg-Pro-Arg-Leu-Ser-Ala-Lys(Me)2-Gly-Pro-Met-Pro-Phe] (H-RPRLSA[Lys(Me2)]GPMPF-OH; N-terminus and C-terminus assumed)",9.42,–
RPRLSARGPM [Compound in Ex. 27],–,9.96
